Where two headings read alike, the source gives them in different places.
What was measured:
[1] = target: T1, human GLP-1R (Homo sapiens, UniProt P43220); assay: Human GLP1R agonist activity, intracellular cAMP accumulation; format: cell-based; settings: HEK-293T cells overexpressing human GLP-1R, 1 hr
T1 construct: HEK-293T cells overexpressing full-length human GLP-1R; FLAG (N); host or cells: HEK-293T
Method in brief: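 Frozen assay-ready cells washed and resuspended at 4×10^5 cells/mL in Krebs Ringer buffer, then incubated with compound 1 hr at room temperature in the dark. cAMP read by HTRF (anti-cAMP antibody, d2-cAMP tracer). Normalised to 1 nm GLP-1 (100%) and DMSO (0%).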

[2] = system: C57BL/6J mice; assay: Oral glucose tolerance test (OGTT); format: in vivo; settings: 3 nmol/kg s.c., 24 hours before glucose loading
Protocol: An oral glucose tolerance test (OGTT) was carried out using C57BL/6J mice with a 50% dextrose solution dosed at 5 ml/kg. Testing concentrations of 0.1 nmol/kg, 0.3 nmmol/kg, 3 nmol/kg or 10 nmol/kg were selected depending on the peptide. Each peptide or a vehicle (control group) was subcutaneously administered 24 hours (unless shown otherwise) before glucose loading and the blood glucose was measured at 0, 15, 30, and 60 minutes after glucose dosing.
% inhibition=(1−(AUC cpd−AUC naïve/AUC veh−AUC naïve))×100.

[3] = Solubility in phosphate buffer pH 7.4
Method in brief: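 3 mg of peptide treated with 100 μL portions of 200 mM phosphate buffer pH 7.4, sonicating/vortexing up to 1 min, with further buffer added until fully dissolved. Solubility then quantified by HPLC.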

[4] = Human GLP1R cAMP EC50, HEK293T (nM)
[5] = pH 7.4, aqueous buffer, pH 7.4 Phosphate Buffer - Solubility, 200 mM Phosphate buffer pH 7.4
[6] = pH 7.4, solubility in phosphate buffer at pH 7.4, 200 mM phosphate buffer pH 7.4

T1 sequence (P43220 24-463): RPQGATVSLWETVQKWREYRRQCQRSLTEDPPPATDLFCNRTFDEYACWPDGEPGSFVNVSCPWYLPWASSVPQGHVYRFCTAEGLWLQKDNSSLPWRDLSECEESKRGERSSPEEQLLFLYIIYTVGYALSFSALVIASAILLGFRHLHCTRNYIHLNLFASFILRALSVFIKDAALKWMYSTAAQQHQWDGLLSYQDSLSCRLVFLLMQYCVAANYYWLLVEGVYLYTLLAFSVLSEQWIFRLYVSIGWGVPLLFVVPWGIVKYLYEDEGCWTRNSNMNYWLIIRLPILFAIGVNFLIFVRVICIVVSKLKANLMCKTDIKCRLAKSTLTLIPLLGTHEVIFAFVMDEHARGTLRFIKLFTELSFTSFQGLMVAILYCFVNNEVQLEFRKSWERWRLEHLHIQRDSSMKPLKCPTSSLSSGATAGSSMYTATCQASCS

SMILES	EC50 [1, 4]	Oral Glucose Tolerance Test Percent decrease in blood glucose AUC (%) over 60 mins [2]	solubility [3, 5]	solubility [3, 6]	EC50 ([1]; read-out: Human GLP1R cAMP EC50, HEK293T)	solubility ([3]; pH 7.4)	solubility ([3]; pH 7.4, aqueous buffer)
CC[C@H](C)[C@H](NC(=O)[C@H](CO)NC(=O)[C@H](Cc1ccc(O)cc1)NC(=O)[C@H](CC(=O)O)NC(=O)[C@H](CO)NC(=O)[C@@H](NC(=O)[C@H](Cc1ccccc1)NC(=O)[C@@H](NC(=O)CNC(=O)[C@H](CCC(=O)O)NC(=O)C(C)(C)NC(=O)[C@H](Cc1ccc(O)cc1)NC)[C@@H](C)O)[C@@H](C)CC)C(=O)N[C@@H](C)C(=O)N[C@@H](CCCCNC(=O)CNC(=O)CNC(=O)CNC(=O)CNC(=O)CNC(=O)CCCCCCCCCCCCCCCCC(=O)O)C(=O)N[C@@H](CC(=O)O)C(=O)N[C@@H](CCCNC(=N)N)C(=O)NC(C)(C)C(=O)N[C@@H](C)C(=O)N[C@@H](CCC(N)=O)C(=O)NC(C)(C)C(=O)N[C@@H](CC(=O)O)C(=O)N[C@@H](Cc1ccccc1)C(=O)N[C@H](C(=O)N[C@@H](CC(N)=O)C(=O)N[C@@H](Cc1c[nH]c2ccccc12)C(=O)N[C@@H](CC(C)C)C(=O)N[C@@H](CC(C)C)C(=O)N[C@@H](C)C(=O)N[C@@H](CCC(N)=O)C(=O)N[C@@H](CO)C(=O)N1CCC[C@H]1C(=O)N[C@@H](CO)C(=O)N[C@@H](CO)C(=O)NCC(=O)N[C@@H](C)C(=O)N1CCC[C@H]1C(=O)N1CCC[C@H]1C(=O)N1CCC[C@H]1C(=O)N[C@@H](CO)C(N)=O)C(C)C [Compound 38]	45.7 nM	97% (3 nmol/kg)	≥ 30 mg/mL	≥ 15 mg/mL	–	–	–
CC[C@H](C)[C@H](NC(=O)[C@H](Cc1ccccc1)NC(=O)[C@@H](NC(=O)CNC(=O)[C@H](CCC(=O)O)NC(=O)C(C)(C)NC(=O)[C@H](Cc1ccc(O)cc1)NC)[C@@H](C)O)C(=O)N[C@@H](CO)C(=O)N[C@@H](CC(=O)O)C(=O)N[C@@H](Cc1ccc(O)cc1)C(=O)N[C@@H](CO)C(=O)N[C@H](C(=O)NC(C)(C)C(=O)N[C@@H](CCCCNC(=O)CNC(=O)CNC(=O)CNC(=O)CNC(=O)CNC(=O)CCCCCCCCCCCCCCCCC(=O)O)C(=O)N[C@@H](CC(=O)O)C(=O)N[C@@H](CCCNC(=N)N)C(=O)NC(C)(C)C(=O)N[C@@H](C)C(=O)N[C@@H](CCC(N)=O)C(=O)NC(C)(C)C(=O)N[C@@H](CC(=O)O)C(=O)N[C@@H](Cc1ccccc1)C(=O)N[C@H](C(=O)N[C@@H](CC(N)=O)C(=O)N[C@@H](Cc1c[nH]c2ccccc12)C(=O)N[C@@H](CC(C)C)C(=O)N[C@@H](CC(C)C)C(=O)N[C@@H](C)C(=O)N[C@@H](CCC(N)=O)C(=O)N[C@@H](CO)C(=O)N1CCC[C@H]1C(=O)N[C@@H](CO)C(=O)N[C@@H](CO)C(=O)NCC(=O)N[C@@H](C)C(=O)N1CCC[C@H]1C(=O)N1CCC[C@H]1C(=O)N1CCC[C@H]1C(=O)N[C@@H](CO)C(N)=O)C(C)C)[C@@H](C)CC [Compound 48]	87.1 nM	87% (3 nmol/kg)	≥ 30 mg/mL	≥ 15 mg/mL	–	–	–
CC[C@H](C)[C@H](NC(=O)[C@H](CO)NC(=O)[C@H](Cc1ccc(O)cc1)NC(=O)[C@H](CC(=O)O)NC(=O)[C@H](CO)NC(=O)[C@@H](NC(=O)[C@H](Cc1ccccc1)NC(=O)[C@@H](NC(=O)CNC(=O)[C@H](CCC(=O)O)NC(=O)C(C)(C)NC(=O)[C@H](Cc1ccc(O)cc1)NC)[C@@H](C)O)[C@@H](C)CC)C(=O)N[C@@H](C)C(=O)N[C@@H](CCCCNC(=O)CNC(=O)CNC(=O)CNC(=O)CNC(=O)CNC(=O)CCCCCCCCCCCCCCCCC(=O)O)C(=O)N[C@@H](CC(=O)O)C(=O)N[C@@H](CCCNC(=N)N)C(=O)NC(C)(C)C(=O)N[C@@H](C)C(=O)N[C@@H](CCC(N)=O)C(=O)NC(C)(C)C(=O)N[C@@H](CC(=O)O)C(=O)N[C@@H](Cc1ccccc1)C(=O)N[C@H](C(=O)N[C@@H](CC(N)=O)C(=O)N[C@@H](Cc1c[nH]c2ccccc12)C(=O)N[C@@H](CC(C)C)C(=O)N[C@@H](CC(C)C)C(=O)N[C@@H](C)C(=O)N[C@@H](CCC(N)=O)C(=O)N[C@@H](CO)C(=O)N1CCC[C@H]1C(=O)N[C@@H](CO)C(=O)N[C@@H](CO)C(=O)NCC(=O)O)C(C)C [Compound 71]	–	68% (3 nmol/kg)	–	–	34.7 nM	–	–
CC[C@H](C)[C@H](NC(=O)[C@H](CO)NC(=O)[C@H](Cc1ccc(O)cc1)NC(=O)[C@H](CC(=O)O)NC(=O)[C@H](CO)NC(=O)[C@@H](NC(=O)[C@H](Cc1ccccc1)NC(=O)[C@@H](NC(=O)CNC(=O)[C@H](CCC(=O)O)NC(=O)C(C)(C)NC(=O)[C@@H](N)Cc1ccc(O)cc1)[C@@H](C)O)[C@@H](C)CC)C(=O)N[C@@H](C)C(=O)N[C@@H](CCCCNC(=O)CNC(=O)CNC(=O)CNC(=O)CNC(=O)CNC(=O)CCCCCCCCCCCCCCCCC(=O)O)C(=O)N[C@@H](CC(=O)O)C(=O)N[C@@H](CCCNC(=N)N)C(=O)NC(C)(C)C(=O)N[C@@H](C)C(=O)N[C@@H](CCC(N)=O)C(=O)NC(C)(C)C(=O)N[C@@H](CC(N)=O)C(=O)N[C@@H](Cc1ccccc1)C(=O)N[C@H](C(=O)N[C@@H](CC(N)=O)C(=O)N[C@@H](Cc1c[nH]c2ccccc12)C(=O)N[C@@H](CC(C)C)C(=O)N[C@@H](CC(C)C)C(=O)N[C@@H](C)C(=O)N[C@@H](CCC(N)=O)C(=O)N[C@@H](CO)C(=O)N1CCC[C@H]1C(=O)N[C@@H](CO)C(=O)N[C@@H](CO)C(=O)NCC(=O)N[C@@H](C)C(=O)N1CCC[C@H]1C(=O)N1CCC[C@H]1C(=O)N1CCC[C@H]1C(=O)N[C@@H](CO)C(=O)O)C(C)C [Compound 138]	–	80% (3 nmol/kg)	≥ 30 mg/mL	≥ 15 mg/mL	–	–	–
CC[C@H](C)[C@H](NC(=O)[C@H](CO)NC(=O)[C@H](Cc1ccc(O)cc1)NC(=O)[C@H](CC(=O)O)NC(=O)[C@H](CO)NC(=O)[C@@H](NC(=O)[C@H](Cc1ccccc1)NC(=O)[C@@H](NC(=O)CNC(=O)[C@H](CCC(=O)O)NC(=O)C(C)(C)NC(=O)[C@@H](N)Cc1ccc(O)cc1)[C@@H](C)O)[C@@H](C)CC)C(=O)N[C@@H](C)C(=O)N[C@@H](CCCCNC(=O)CNC(=O)CNC(=O)CNC(=O)CNC(=O)CNC(=O)CCCCCCCCCCCCCCCCC(=O)O)C(=O)N[C@@H](CC(=O)O)C(=O)N[C@@H](CCCNC(=N)N)C(=O)NC(C)(C)C(=O)N[C@@H](C)C(=O)N[C@@H](CCC(N)=O)C(=O)NC(C)(C)C(=O)N[C@@H](CC(=O)O)C(=O)N[C@@H](Cc1ccccc1)C(=O)N[C@H](C(=O)N[C@@H](CCC(=O)O)C(=O)N[C@@H](Cc1c[nH]c2ccccc12)C(=O)N[C@@H](CC(C)C)C(=O)N[C@@H](CC(C)C)C(=O)N[C@@H](C)C(=O)N[C@@H](CCC(N)=O)C(=O)N[C@@H](CCCNC(=N)N)C(=O)NCC(=O)O)C(C)C [Compound 144]	–	35% (3 nmol/kg)	–	–	–	≥ 15 mg/mL	≥ 30 mg/mL
CC[C@H](C)[C@H](NC(=O)[C@H](Cc1ccccc1)NC(=O)[C@@H](NC(=O)CNC(=O)[C@H](CCC(=O)O)NC(=O)C(C)(C)NC(=O)[C@@H](N)Cc1ccc(O)cc1)[C@@H](C)O)C(=O)N[C@@H](CO)C(=O)N[C@@H](CC(=O)O)C(=O)N[C@@H](Cc1ccc(O)cc1)C(=O)N[C@@H](CO)C(=O)N[C@H](C(=O)NC(C)(C)C(=O)N[C@@H](CCCCNC(=O)CNC(=O)CNC(=O)CNC(=O)CNC(=O)CNC(=O)CCCCCCCCCCCCCCCCC(=O)O)C(=O)N[C@@H](CC(=O)O)C(=O)N[C@@H](CCCNC(=N)N)C(=O)NC(C)(C)C(=O)N[C@@H](C)C(=O)N[C@@H](CCC(N)=O)C(=O)N[C@@H](C)C(=O)N[C@@H](CC(=O)O)C(=O)N[C@@H](Cc1ccccc1)C(=O)N[C@H](C(=O)N[C@@H](CCC(=O)O)C(=O)N[C@@H](Cc1c[nH]c2ccccc12)C(=O)N[C@@H](CC(C)C)C(=O)N[C@@H](CC(C)C)C(=O)N[C@@H](C)C(=O)N[C@@H](CCC(N)=O)C(=O)N[C@@H](CCCNC(=N)N)C(=O)NCC(=O)O)C(C)C)[C@@H](C)CC [Compound 146]	–	52% (3 nmol/kg)	–	–	–	≥ 15 mg/mL	≥ 30 mg/mL
CC[C@H](C)[C@H](NC(=O)[C@H](Cc1ccccc1)NC(=O)[C@@H](NC(=O)CNC(=O)[C@H](CCC(=O)O)NC(=O)C(C)(C)NC(=O)[C@@H](N)Cc1ccc(O)cc1)[C@@H](C)O)C(=O)N[C@@H](CO)C(=O)N[C@@H](CC(=O)O)C(=O)N[C@@H](Cc1ccc(O)cc1)C(=O)N[C@@H](CO)C(=O)N[C@H](C(=O)NC(C)(C)C(=O)N[C@@H](CCCCNC(=O)CNC(=O)CNC(=O)CNC(=O)CNC(=O)CNC(=O)CCCCCCCCCCCCCCCCC(=O)O)C(=O)N[C@@H](CC(=O)O)C(=O)N[C@@H](CCCNC(=N)N)C(=O)N[C@@H](C)C(=O)N[C@@H](C)C(=O)N[C@@H](CCC(N)=O)C(=O)N[C@@H](C)C(=O)N[C@@H](CC(=O)O)C(=O)N[C@@H](Cc1ccccc1)C(=O)N[C@H](C(=O)N[C@@H](CCC(=O)O)C(=O)N[C@@H](Cc1c[nH]c2ccccc12)C(=O)N[C@@H](CC(C)C)C(=O)N[C@@H](CC(C)C)C(=O)N[C@@H](C)C(=O)N[C@@H](CCC(N)=O)C(=O)N[C@@H](CCCNC(=N)N)C(=O)NCC(=O)O)C(C)C)[C@@H](C)CC [Compound 148]	–	51% (3 nmol/kg)	–	–	–	≥ 15 mg/mL	≥ 30 mg/mL

Reference: patent publication US20230143604A1, “QW DOSING OF GIP RECEPTOR AGONIST PEPTIDE COMPOUNDS AND USES THEREOF” (TAKEDA PHARMACEUTICAL COMPANY LIMITED, priority 2020, published 2023)
